# Laboratory results published in patent US7005258B1, “Cdc25 genes, encoded products and uses thereof” (The National Institutes of Health, priority 1991, dated 2006).
# Biological target: T1, GST-cdc25A phosphatase (Homo sapiens, UniProt P30304)
# T1 construct: made in house; host or cells: E. coli BL21(DE3)
# T1 sequence (P30304 1-524): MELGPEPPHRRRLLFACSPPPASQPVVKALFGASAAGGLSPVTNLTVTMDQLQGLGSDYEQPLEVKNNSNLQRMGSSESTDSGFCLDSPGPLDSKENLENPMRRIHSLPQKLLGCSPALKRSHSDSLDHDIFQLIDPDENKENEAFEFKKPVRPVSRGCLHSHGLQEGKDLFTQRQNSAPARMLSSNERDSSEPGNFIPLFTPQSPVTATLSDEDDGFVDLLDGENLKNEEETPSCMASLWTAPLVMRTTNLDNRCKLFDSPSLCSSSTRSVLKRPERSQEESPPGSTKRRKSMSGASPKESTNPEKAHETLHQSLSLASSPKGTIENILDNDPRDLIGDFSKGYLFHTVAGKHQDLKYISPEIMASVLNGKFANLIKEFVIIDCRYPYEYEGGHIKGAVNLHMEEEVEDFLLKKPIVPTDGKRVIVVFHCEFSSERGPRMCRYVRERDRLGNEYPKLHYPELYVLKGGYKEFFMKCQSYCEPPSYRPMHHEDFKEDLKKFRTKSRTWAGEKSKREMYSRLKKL
# Assay: GST-cdc25A phosphatase activity towards p-nitrophenylphosphate (microtitration plate assay)
# Format: biochemical
# Description: One ml assay: 100 μl of GST-cdc25A protein (diluted to an activity of ∂ OD 410 nm=0.3/10 min) were mixed with 100 μl […] (in Tris buffer A) and 700 μl of Tris buffer A. The assay was initiated by addition of 100 μl 500 mM p-NPP (in Tris buffer A). After 10 min incubation at 37° C., the assay was terminated by addition of 40 μl 5 N NaOH and transfer of the tubes to 4° C. Absorbance at 410 nm was then measured and blank values (no GST-cdc25A protein but 10 min incubation) were subtracted.
# This assay was then scaled down to 200 μl and conducted semi-automatically in 96-wells microtitration plates, as described in detail below. Each well was filled with 20 μl GST-cdc25A phosphatase, 140 μl Tris buffer A, 20 μl 100 mM DTT (in Tris buffer A); after 15 min equilibration at 37° C., reaction was initiated by addition of 20 μl 500 mM p-NPP (in Tris buffer A). After 60 min incubation absorbance at 405 nm was monitored in a microplate reader; blank values (no GST-cdc25A added) were subtracted.
# Microtitration plate assay: 20 μl of GST-cdc25A protein (diluted to an activity of a ∂ OD 405 nm=0.2–0.3/60 min) were mixed with 20 μl 100 mM DTT (in Tris buffer A) and 140 μl of Tris buffer A, in 96-wells microtitration plates (Corning). The plates were preincubated at 37° C. for 15 min in a Denley Wellwarm 1 microplate incubator. The assays were initiated by addition of 20 μl of 500 mM p-NPP (in Tris buffer A). After 60 min incubation at 37° C. absorbance at 405 nm was measured in a bioRad microplate reader. Blank values (no CST-cdc25A protein added) were automatically subtracted.
# In a series of experiments various antimitotic compounds currently used in cancer therapy were tested as potential inhibitors of the phosphatase (the Table). Most of them are reported to act as DNA damaging agents, as DNA intercalators, as topoisomerase 2 inhibitors or as compounds interfering with spindle microtubles. […] As a positive control vanadate, a reported inhibitor of tyrosine phosphatases was also tested (Gordon, J. A., 1Methods in Enzymology pp. 447–482 (1991)).
compound,measurement,setting,value
"[Na+].[Na+].[Na+].[O]=[V]([O-])([O-])[O-] [vanadate, sodium orthovanadate]",inhibition of GST-cdc25A phosphatase,at concentrations above 500 μM,totally inhibits
same,inhibition of cdc25 / GST-cdc25A phosphatase (summary statement),concentration not given,totally inhibit
same,IC50,"p-NPP substrate, FIG. 14, read-out: I50, inhibition of GST-cdc25A phosphatase",20 µM
